The values below come from patent US7705003B2, “Cyclohexylamides as dopamine D3, D2 and 5-HT1A Antagonists” (Richter Gedeon Vegyeszeti Gyar RT., priority 2005, dated 2010).

For one data set, the system named is Male CD-1 mice. Nature of the data set: Inhibition of apomorphine induced climbing. The class given is in vivo. Particulars: for ED50: Mus musculus; for ranking of activity in apomorphine climbing assay: apomorphine climbing in mice. How it is done: With respect to the expected clinical application of the compounds of the present invention in addition to their receptor binding profile their in vivo efficacy is a crucial issue as well. Therefore, in vivo potency and efficacy of the compounds of formula (I) were studied in the apomorphine climbing assay, an animal screening test for antipsychotic activity.
5. Inhibition of Apomorphine Induced Climbing
Male CD-1 mice weighing 20-25 g were injected orally (n=12) with the test compound or vehicle. Fifty minutes later the animals were placed into cylindrical cages with walls of vertical metal bars. After 10 minutes habituation the mice were treated with apomorphine (1.5 mg/kg sc.). […] Scores were summed for each individual and group means were calculated. Drug effect was expressed and plotted as percentage inhibition of the apomorphine induced behaviour.

Data set [1] concerns the target T1, rat recombinant D3 receptors (Rattus norvegicus, UniProt P19020).
T1 construct: purchased Perkin-Elmer 6110139; host or cells: Sf9 cells
Description: D3 receptor binding ([3H]spiperone). Particulars: rat recombinant D3 receptors expressed in Sf9 cells.

Another data set deals with T2, 5-HT1A receptor (Rattus norvegicus, UniProt P19327).
T2 construct: on rat hippocampal membrane preparation; from tissue; host or cells: rat hippocampus membranes
T2 sequence (P19327 1-422): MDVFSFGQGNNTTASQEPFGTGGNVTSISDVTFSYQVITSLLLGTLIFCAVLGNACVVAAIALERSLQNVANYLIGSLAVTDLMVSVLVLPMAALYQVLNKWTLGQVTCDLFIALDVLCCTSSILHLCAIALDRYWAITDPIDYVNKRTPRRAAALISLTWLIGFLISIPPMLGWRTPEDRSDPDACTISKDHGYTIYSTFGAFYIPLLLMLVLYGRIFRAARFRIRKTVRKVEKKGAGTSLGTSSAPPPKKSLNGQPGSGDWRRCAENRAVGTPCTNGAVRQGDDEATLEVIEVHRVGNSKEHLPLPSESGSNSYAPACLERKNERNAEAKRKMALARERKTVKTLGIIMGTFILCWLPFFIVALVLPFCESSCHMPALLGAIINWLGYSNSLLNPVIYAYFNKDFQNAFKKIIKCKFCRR
Description: 5-HT1A binding ([3H]8-OH-DPAT, rat hippocampal membrane). Particulars: [3H]8-hydroxy-2-(di-n-propylamino)-tetralin. As to the method: The non-specific binding was determined in the presence of 10 μM serotonin creatinine sulphate.

For another data set, the target named is D2 receptor (Rattus norvegicus, UniProt P61169). Description: D2 receptor binding ([3H]spiperone, rat brain striatal membrane). As to the method:
Non-specific binding was determined in the presence of 1 μM (+) butaclamol.

In a further data set the target is α1 receptor. Nature of the data set: α-1 receptor binding ([3H]-prazosine, rat cortical membrane). As to the method:
α1 receptor binding study was performed according to the methods described by Greengrass and Bremner (Eur. J. Pharmacol., 55:323-326, 1979) on rat cortical membrane preparation using [^3H]-prazosine (0.22-0.37 nM) as ligand. The non-specific binding was determined in the presence of 10 μM phentolamine.

Chain of D2 receptor (P61169 1-415 isoform P61169-2): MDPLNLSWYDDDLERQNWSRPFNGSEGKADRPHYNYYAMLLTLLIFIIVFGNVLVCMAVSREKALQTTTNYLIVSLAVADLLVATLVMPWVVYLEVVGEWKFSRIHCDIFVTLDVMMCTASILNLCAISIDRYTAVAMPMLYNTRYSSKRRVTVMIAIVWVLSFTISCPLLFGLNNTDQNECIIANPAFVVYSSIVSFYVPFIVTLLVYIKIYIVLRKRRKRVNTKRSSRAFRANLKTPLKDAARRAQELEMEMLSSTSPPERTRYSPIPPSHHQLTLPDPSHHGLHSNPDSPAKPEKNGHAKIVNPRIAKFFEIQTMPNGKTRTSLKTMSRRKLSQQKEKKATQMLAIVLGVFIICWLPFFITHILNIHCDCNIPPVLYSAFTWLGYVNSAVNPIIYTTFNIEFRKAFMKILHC
T1 sequence (P19020 whole entry): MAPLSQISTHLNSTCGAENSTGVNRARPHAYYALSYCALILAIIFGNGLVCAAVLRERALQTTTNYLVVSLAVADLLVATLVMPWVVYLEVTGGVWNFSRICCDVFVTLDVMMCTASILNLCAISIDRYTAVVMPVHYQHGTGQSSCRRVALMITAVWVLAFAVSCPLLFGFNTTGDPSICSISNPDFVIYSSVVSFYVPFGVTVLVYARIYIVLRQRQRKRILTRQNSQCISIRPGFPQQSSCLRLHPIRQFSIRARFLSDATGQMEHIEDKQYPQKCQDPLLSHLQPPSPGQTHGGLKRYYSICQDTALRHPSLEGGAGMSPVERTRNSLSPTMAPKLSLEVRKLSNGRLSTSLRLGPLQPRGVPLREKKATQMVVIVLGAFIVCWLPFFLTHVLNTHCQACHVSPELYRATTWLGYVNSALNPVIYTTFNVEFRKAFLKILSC

Take `O=C1CCc2ccc(OCCCCN3CCN(c4cccc(Cl)c4Cl)CC3)cc2N1` [Aripiprazole, reference compound]: the median effective dose (ED50) in the data set on Male CD-1 mice worked out at 1 mg/kg.
Turning to `CC(=O)N[C@H]1CC[C@H](CCN2CCN(c3cccc4c3CCC4)CC2)CC1` [Compound 1, trans-N-{4-[2-[4-(indan-4-yl)-piperazin-1-yl]-ethyl]-cyclohexyl}-acetamide], the melting point was 202 to 204 °C. Further, the IC50 in data set [1] is < 0.002 µM. Also, at 5-HT1A receptor, the 50% inhibitory concentration (IC50) fell in the range of 0.001 to 0.02 µM. On D2 receptor, this compound had an IC50 of 0.01 to 0.04 µM. Also, the concentration for half-maximal inhibition (IC50) at α1 receptor was 0.04 to 0.2 µM. Also, in the data set with Male CD-1 mice, the 50% effect level (ED50) was put at a dose of 0.14 mg/kg and the “ranking of activity in apomorphine climbing assay” value (“ranking of activity” below) was “most active”.
Compound `CCC(=O)N[C@H]1CC[C@H](CCN2CCN(c3cccc4c3CCC4)CC2)CC1` [Compound 2, trans-N-{4-[2-[4-(indan-4-yl)-piperazin-1-yl]-ethyl]-cyclohexyl}-propionamide] showed a melting point of 194 to 196 °C. Further, the IC50 in data set [1] is < 0.002 µM. The IC50 at 5-HT1A receptor was 0.001 to 0.02 µM. Besides, the IC50 at D2 receptor lay in the range of 0.01 to 0.04 µM. Besides, the half-inhibitory concentration (IC50) on α1 receptor was in the range of 0.04 to 0.2 µM. The 50% effect level with Male CD-1 mice (ED50) was put at a dose of 0.21 mg/kg.
Take `CN(C)C(=O)N[C@H]1CC[C@H](CCN2CCN(c3cccc4c3CCC4)CC2)CC1` [Compound 3, trans-1-{4-[2-[4-(indan-4-yl)-piperazin-1-yl]-ethyl]-cyclohexyl}-3,3-dimethyl-urea]: the melting point lay within 150 to 152 °C. Further, the half-inhibitory concentration (IC50) in data set [1] is < 0.002 µM. The same compound had a half-inhibitory concentration (IC50) on 5-HT1A receptor of 0.001 to 0.02 µM. The concentration for half-maximal inhibition (IC50) on D2 receptor is 0.01 to 0.04 µM. The compound also gave a 50% inhibitory concentration (IC50) at α1 receptor of 0.04 to 0.2 µM. In addition, in the data set on Male CD-1 mice, it took a dose of 0.11 mg/kg to reach the 50% effect level (ED50) and the “ranking of activity” value was “most active”.
`CCN(CC)C(=O)N[C@H]1CC[C@H](CCN2CCN(c3cccc4c3CCC4)CC2)CC1` [Compound 4, trans-1-{4-[2-[4-(indan-4-yl)-piperazin-1-yl]-ethyl]-cyclohexyl}-3,3-diethyl-urea]: the melting point was in the range of 157 to 159 °C. Also, in data set [1], the IC50 is < 0.002 µM. Moreover, the concentration for half-maximal inhibition (IC50) on 5-HT1A receptor lay within 0.001 to 0.02 µM. This compound also displayed an IC50 at D2 receptor of 0.01 to 0.04 µM. Further, on α1 receptor, the IC50 lay in the range of 0.04 to 0.2 µM. Moreover, it took a dose of 0.46 mg/kg to reach the 50% effect level with Male CD-1 mice (ED50).
`CCNC(=O)N[C@H]1CC[C@H](CCN2CCN(c3cccc4c3CCC4)CC2)CC1` [Compound 5, trans-1-{4-[2-[4-(indan-4-yl)-piperazin-1-yl]-ethyl]-cyclohexyl}-3-ethyl-urea] yielded a melting point of 198 to 200 °C. The IC50 in data set [1] was < 0.002 µM. The compound also displayed a half-inhibitory concentration (IC50) at 5-HT1A receptor of 0.001 to 0.02 µM. Besides, the half-maximal inhibitory concentration (IC50) at D2 receptor fell in the range of 0.01 to 0.04 µM. On α1 receptor, the concentration for half-maximal inhibition (IC50) was 0.04 to 0.2 µM. In addition, the 50% effect level in the data set on Male CD-1 mice (ED50) was put at a dose of 0.47 mg/kg.
`O=C(N[C@H]1CC[C@H](CCN2CCN(c3cccc4c3CCC4)CC2)CC1)N1CCOCC1` [Compound 6, trans-N-{4-[2-[4-(indan-4-yl)-piperazin-1-yl]-ethyl]-cyclohexyl}-morpholine-4-carboxamide]: the melting point lay within 181 to 182 °C. Further, in data set [1], the IC50 is < 0.002 µM. Besides, on 5-HT1A receptor, the 50% inhibitory concentration (IC50) lay within 0.001 to 0.02 µM. Further, the 50% inhibitory concentration (IC50) on D2 receptor was in the range of 0.01 to 0.04 µM. The compound further had an IC50 on α1 receptor of 0.04 to 0.2 µM. Besides, in the data set with Male CD-1 mice, it took a dose of 0.16 mg/kg to reach the 50% effect level (ED50) and the “ranking of activity” value is recorded as “most active”.
`NC(=O)N[C@H]1CC[C@H](CCN2CCN(c3cccc4c3CCC4)CC2)CC1` [Compound 7, trans-1-{4-[2-[4-(indan-4-yl)-piperazin-1-yl]-ethyl]-cyclohexyl}-urea]: the melting point was 204 to 206 °C.
`CN(C)C(=O)N[C@H]1CC[C@H](CN2CCN(c3cccc4c3CCC4)CC2)CC1` [Compound 8, trans-1-{4-[[4-(indan-4-yl)-piperazin-1-yl]-methyl]-cyclohexyl}-3,3-dimethyl-urea] had a melting point of 152 to 154 °C.
Compound `CC(=O)N[C@H]1CC[C@H](CCN2CCN(c3cccc4c3CCCC4)CC2)CC1` [Compound 9, trans-N-{4-[2-[4-(5,6,7,8-tetrahydronaphthalen-1-yl)-piperazin-1-yl]-ethyl]-cyclohexyl}-acetamide] had a melting point of 187 to 189 °C. For the same compound, in data set [1], the half-inhibitory concentration (IC50) was < 0.002 µM. The same compound came in with a half-maximal inhibitory concentration (IC50) on 5-HT1A receptor of 0.001 to 0.02 µM. Moreover, the IC50 at D2 receptor is 0.01 to 0.04 µM. Further, the 50% inhibitory concentration (IC50) on α1 receptor was > 0.2 µM. In addition, the 50% effect level with Male CD-1 mice (ED50) was put at a dose of 0.26 mg/kg.
Consider `CCC(=O)N[C@H]1CC[C@H](CCN2CCN(c3cccc4c3CCCC4)CC2)CC1` [Compound 10, trans-N-{4-[2-[4-(5,6,7,8-tetrahydronaphthalen-1-yl)-piperazin-1-yl]-ethyl]-cyclohexyl}-propionamide], for which the melting point fell in the range of 182 to 185 °C. Also, the half-maximal inhibitory concentration (IC50) in data set [1] is < 0.002 µM. Further, the IC50 on 5-HT1A receptor was in the range of 0.001 to 0.02 µM. Further, the half-maximal inhibitory concentration (IC50) at D2 receptor fell in the range of 0.01 to 0.04 µM. The half-maximal inhibitory concentration (IC50) at α1 receptor was > 0.2 µM. Further, it took a dose of 0.35 mg/kg to reach the 50% effect level in the data set with Male CD-1 mice (ED50).
In turn, `CN(C)C(=O)N[C@H]1CC[C@H](CCN2CCN(c3cccc4c3CCCC4)CC2)CC1` [Compound 11, trans-1-{4-[2-[4-(5,6,7,8-tetrahydronaphthalen-1-yl)-piperazin-1-yl]-ethyl]-cyclohexyl}-3,3-dimethyl-urea] registered a melting point of 190 to 193 °C. Moreover, in data set [1], the IC50 is < 0.002 µM. The same compound registered a 50% inhibitory concentration (IC50) at 5-HT1A receptor of 0.001 to 0.02 µM. The IC50 at D2 receptor lay in the range of 0.01 to 0.04 µM. The same compound registered a concentration for half-maximal inhibition (IC50) on α1 receptor of 0.04 to 0.2 µM. In addition, the ED50 in the data set with Male CD-1 mice was 0.23 mg/kg.
Consider `O=C(N[C@H]1CC[C@H](CCN2CCN(c3cccc4c3CCCC4)CC2)CC1)N1CCOCC1` [Compound 12, trans-N-{4-[2-[4-(5,6,7,8-tetrahydronaphthalen-1-yl)-piperazin-1-yl]-ethyl]-cyclohexyl}-morpholine-4-carboxamide], for which the melting point fell in the range of 178 to 180 °C. Also, in data set [1], the concentration for half-maximal inhibition (IC50) was < 0.002 µM. On 5-HT1A receptor, this compound yielded a half-maximal inhibitory concentration (IC50) of 0.001 to 0.02 µM. This compound showed a 50% inhibitory concentration (IC50) on D2 receptor of 0.01 to 0.04 µM. Also, the IC50 on α1 receptor was 0.04 to 0.2 µM. Besides, the 50% effect level with Male CD-1 mice (ED50) was put at a dose of 0.2 mg/kg.
In turn, `Cc1cc2c(s1)Nc1ccccc1N=C2N1CCN(C)CC1` [Olanzapine, reference compound] registered an ED50 with Male CD-1 mice of 1.3 mg/kg.
